We go through one compound from paper PMC7475180, “The Arabidopsis TRM61/TRM6 complex is a bona fide tRNA N^1-methyladenosine methyltransferase” (Journal of Experimental Botany, 2020).

This assay has as its target T1, AtTRM61/AtTRM6 complex (AtTRM61-His/AtTRM6-GST) (Arabidopsis thaliana, UniProt F4K6U9).
T1 construct: gene TRM61; CDSs of AtTRM61 (pET28a+, His tag) and AtTRM6 (pGEX-4T-2, GST tag) co-expressed in E. coli, Ni-NTA purified; tag removal not mentioned; heterodimeric complex; with tRNA (adenine(58)-N(1))-methyltransferase non-catalytic subunit TRM6
T1 sequence (F4K6U9 1-318): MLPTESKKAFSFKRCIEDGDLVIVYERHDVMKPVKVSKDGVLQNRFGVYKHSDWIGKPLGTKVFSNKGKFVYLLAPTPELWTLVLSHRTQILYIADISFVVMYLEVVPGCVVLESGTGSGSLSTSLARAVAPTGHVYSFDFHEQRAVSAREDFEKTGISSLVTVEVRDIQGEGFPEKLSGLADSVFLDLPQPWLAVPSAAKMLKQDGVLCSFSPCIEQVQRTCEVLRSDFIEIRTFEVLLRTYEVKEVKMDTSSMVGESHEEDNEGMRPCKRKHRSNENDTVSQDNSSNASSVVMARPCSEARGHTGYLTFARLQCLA
T1 sequence (O80846 1-446 partner): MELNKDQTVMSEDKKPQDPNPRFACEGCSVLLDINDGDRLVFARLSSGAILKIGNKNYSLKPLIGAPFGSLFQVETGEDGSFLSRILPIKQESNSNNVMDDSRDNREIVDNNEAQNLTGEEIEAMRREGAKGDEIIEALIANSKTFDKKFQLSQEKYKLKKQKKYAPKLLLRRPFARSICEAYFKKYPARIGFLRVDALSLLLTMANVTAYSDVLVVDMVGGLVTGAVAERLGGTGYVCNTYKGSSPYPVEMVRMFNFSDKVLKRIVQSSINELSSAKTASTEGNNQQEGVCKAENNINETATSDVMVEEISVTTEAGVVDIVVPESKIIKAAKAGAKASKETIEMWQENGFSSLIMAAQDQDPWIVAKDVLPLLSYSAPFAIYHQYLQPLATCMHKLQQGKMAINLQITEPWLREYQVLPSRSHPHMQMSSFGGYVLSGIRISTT
The experiment in a line: m1A formation on tRNA, anti-m1A immuno-northern blot. It counts as biochemical. Particulars: methyl donor, 30 mM AdoMet as printed; 150 nM RNA substrate (trm6-506 yeast tRNA or in vitro transcribed Arabidopsis tRNAiMet); 15 nM protein; 30 °C, 30 min.

For the compound `C[S+](CC[C@H](N)C(=O)O)C[C@H]1O[C@@H](n2cnc3c(N)ncnc32)[C@H](O)[C@@H]1O` (stereo partly drawn) [S-adenosyl-L-methionine], the “m1A formation on tRNA, anti-m1A immuno-northern blot” value was “The purified complex was then incubated with a methyl donor (SAM)”.
